Structures can show the parent of a compound that is named as a salt. Where two headings read alike, the source gives them in different places.
Assays:
[1] = test system: human platelet rich plasma (PRP); experiment: ADP induced platelet aggregation assay
Method: The ability of P2Y1 antagonists covered in the present invention to inhibit platelet aggregation induced by 10 μM ADP was tested using human platelet rich plasma (PRP) as described in Platelet Protocols: Research and Clinical Laboratory Procedures (White, M. M. et al., Academic Press (1999)). Human blood was collected in 30 μM (final concentration in blood) argatroban (GSK) as the anticoagulant at a ratio of 1 ml per 9 ml of blood. The PRP was isolated by centrifugation at 170 g for 12 minutes. The platelet poor plasma (PPP) was used as the blank for optical aggregometry. Compounds of the present invention in DMSO solution was preincubated with 250 μl PRP at 37° C. for 1 minute with stirring speed of 1000 rpm. Aggregation was initiated by addition of 2.5 μl of 1 mM ADP (Chrono-log, Havertown, Pa.) for a final ADP concentration of 10 μM. Platelet aggregation was monitored using Optical Aggregometer (Chrono-log, Havertown, Pa.) and the area under the curve (AUC) at 5 minute was measured. IC50 was calculated using vehicle control as 0% inhibition.

[2] = target: cloned human P2Y1 receptors (Homo sapiens (Human), UniProt P47900); experiment: Binding Assay B: Scintillation Proximity Assay (SPA) for P2Y1 binding; details: SPA, [33P] 2MeS-ADP displacement; read-out: P2Y1 Ki (nM) using binding assay B
Sequence of cloned human P2Y1 receptors (P47900 whole entry): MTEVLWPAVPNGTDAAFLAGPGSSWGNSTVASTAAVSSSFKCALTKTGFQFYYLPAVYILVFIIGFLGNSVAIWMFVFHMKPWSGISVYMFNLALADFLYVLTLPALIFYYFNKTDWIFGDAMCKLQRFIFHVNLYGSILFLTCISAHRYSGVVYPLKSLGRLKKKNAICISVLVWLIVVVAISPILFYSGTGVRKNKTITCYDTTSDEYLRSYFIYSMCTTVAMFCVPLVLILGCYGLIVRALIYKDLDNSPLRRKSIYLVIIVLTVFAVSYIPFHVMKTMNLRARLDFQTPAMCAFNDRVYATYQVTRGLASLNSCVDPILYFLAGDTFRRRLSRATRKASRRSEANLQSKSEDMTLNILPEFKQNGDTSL
Procedure, shortened: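 Membranes with ~15 fmol receptor (1.7 μg total protein) incubated with 0.3 nM [^33P]-labelled radioligand for 1 h at room temperature to completion. After centrifugation and removal of aqueous phase, bound radioactivity read by scintillation proximity; inhibition of radioligand binding measured.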

[3] = Homo sapiens, Platelet, read-out: PA IC50 (μM) @ 10 μM ADP, platelet aggregation induced by 10 μM ADP, human PRP

Question: Which IC50 [1, 3] does the source give for `COc1ccc2nc(NC(=O)Nc3ccccc3N3CC4(CCN(CC(C)(C)C)CC4)c4c(-c5nc6cc(Cl)ccc6s5)ccc(O)c43)sc2c1` [Example 150, 1-(2-(4-(5-Chlorobenzo[d]thiazol-2-yl)-7-hydroxy-1′-neopentylspiro[indoline-3,4′-piperidin]-1-yl)phenyl)-3-(6-methoxybenzo[d]thiazol-2-yl)urea] here?
Answer: 0.9 µM

Question: What about the Ki [2] of the same compound?
Answer: 33.4 nM

Question: How did the IC50 [1, 3] turn out when `CC(C)CN1CCC2(CC1)CN(c1ccccc1NC(=O)Nc1nc3ccc(Cl)cc3s1)c1c(O)ccc(C(F)(F)F)c12` [Example 30, 1-(6-Chlorobenzo[d]thiazol-2-yl)-3-(2-(7-hydroxy-1′-isobutyl-4-(trifluoromethyl)spiro[indoline-3,4′-piperidine]-1-yl)phenyl)urea] was run?
Answer: 0.1 µM

Question: And the Ki [2]?
Answer: 14.5 nM

Question: Which results are given for `CC(C)(C)CN1CCC2(CC1)CN(c1ccccc1NC(=O)Nc1ccc(OC(F)(F)F)cc1)c1c(O)ccc(-c3nc4ccc(Br)cc4s3)c12` [Example 121, 1-(2-(4-(6-Bromobenzo[d]thiazol-2-yl)-7-hydroxy-1′-neopentylspiro[indoline-3,4′-piperidin]-1-yl)phenyl)-3-(4-(trifluoromethoxy)phenyl)urea]?
Answer: IC50 [1, 3]: 0.4 µM; Ki [2]: 45.6 nM

Question: `CC(C)(C)CN1CCC2(CC1)CN(c1ccccc1NC(=O)Nc1ccc(OC(F)(F)F)cc1)c1c(O)c(F)cc(-c3ccc(C(F)(F)F)cc3)c12` [Example 154, 1-(2-(6-Fluoro-7-hydroxy-1′-neopentyl-4-(4-(trifluoromethyl)phenyl)spiro[indoline-3,4′-piperidine]-1-yl)phenyl)-3-(4-(trifluoromethoxy)phenyl)urea] was tested. Which IC50 [1, 3] did it give?
Answer: 0.4 µM

Question: What about the Ki [2] of the same compound?
Answer: 38.8 nM

Question: For `CC(C)(C)CN1CCC2(CC1)CN(c1ccccc1NC(=O)Nc1ccc(C(C)(C)C)cc1)c1c(O)ccc(F)c12` [Example 7, 1-(4-tert-Butylphenyl)-3-(2-(4-fluoro-7-hydroxy-1′-neopentylspiro[indoline-3,4′-piperidine]-1-yl)phenyl)urea], which IC50 [1, 3] is on record?
Answer: 0.6 µM

Question: What about the Ki [2] of the same compound?
Answer: 4 nM

Question: `CC(C)(C)CN1CCC2(CC1)CN(c1ccccc1NC(=O)Nc1csc(Cl)n1)c1c(O)ccc(-c3nc4ccc(F)cc4s3)c12` [Example 114, 1-(2-Chlorothiazol-4-yl)-3-(2-(4-(6-fluorobenzo[d]thiazol-2-yl)-7-hydroxy-1′-neopentylspiro[indoline-3,4′-piperidin]-1-yl)phenyl)urea] was tested. Which IC50 [1, 3] did it give?
Answer: 0.1 µM

Question: What about the Ki [2] of the same compound?
Answer: 5.6 nM

Question: How did the IC50 [1, 3] turn out when `CC(C)(C)CN1CCC2(CC1)CN(c1ncccc1NC(=O)Nc1nc3ccc(Cl)nc3s1)c1c(O)ccc(C(F)(F)F)c12` [Example 176, 1-(5-Chlorothiazolo[5,4-b]pyridin-2-yl)-3-(2-(7-hydroxy-1′-neopentyl-4-(trifluoromethyl)spiro[indoline-3,4′-piperidine]-1-yl)pyridin-3-yl)urea] was run?
Answer: 0.4 µM

Question: And the Ki [2]?
Answer: 7.2 nM

Question: What does the source list for `CC(C)(C)CN1CCC2(CC1)CN(c1ccccc1NC(=O)Nc1ccc(F)cc1F)c1c(O)ccc(Cl)c12` [Example 54, 1-(2-(4-Chloro-7-hydroxy-1′-neopentylspiro[indoline-3,4′-piperidine]-1-yl)phenyl)-3-(2,4-difluorophenyl)urea]?
Answer: IC50 [1, 3]: 1.1 µM; Ki [2]: 9.6 nM

Question: `CC(C)(C)CN1CCC2(CC1)CN(c1ccccc1NC(=O)NC1CCC(C(C)(C)C)CC1)c1c(O)ccc(C(F)(F)F)c12` (centres unmarked) [Example 27, 1-(4-tert-Butylcyclohexyl)-3-(2-(7-hydroxy-1′-neopentyl-4-(trifluoromethyl)spiro[indoline-3,4′-piperidine]-1-yl)phenyl)urea] was tested. Which IC50 [1, 3] did it give?
Answer: 0.7 µM

Question: What about the Ki [2] of the same compound?
Answer: 9.6 nM

Question: How did the IC50 [1, 3] turn out when `COc1nsc(NC(=O)Nc2ccccc2N2CC3(CCN(CC(C)(C)C)CC3)c3c(Cl)ccc(O)c32)n1` [Example 50, 1-(2-(4-Chloro-7-hydroxy-1′-neopentylspiro[indoline-3,4′-piperidine]-1-yl)phenyl)-3-(3-methoxy-1,2,4-thiadiazol-5-yl)urea, TFA] was run?
Answer: 0.3 µM

Question: And the Ki [2]?
Answer: 6.8 nM

Question: Which IC50 [1, 3] does the source give for `COC(=O)c1ccc(O)c2c1C1(CCN(CC(C)(C)C)CC1)CN2c1ccccc1NC(=O)Nc1nc2ccc(F)cc2s1` [Example 77, Methyl 1-(2-(3-(6-fluorobenzo[d]thiazol-2-yl)ureido)phenyl)-7-hydroxy-1′-neopentylspiro[indoline-3,4′-piperidine]-4-carboxylate] here?
Answer: 0.3 µM

Question: And the Ki [2]?
Answer: 8.7 nM

Question: How did the IC50 [1, 3] turn out when `CC(C)(C)CN1CCC2(CC1)CN(c1ccccc1NC(=O)Nc1ccc(OC(F)(F)F)cc1)c1c(O)ccc(-c3nc4c(Cl)cccc4s3)c12` [Example 115, 1-(2-(4-(4-Chlorobenzo[d]thiazol-2-yl)-7-hydroxy-1′-neopentylspiro[indoline-3,4′-piperidin]-1-yl)phenyl)-3-(4-(trifluoromethoxy)phenyl)urea] was run?
Answer: 1 µM

Question: What about the Ki [2] of the same compound?
Answer: 22.8 nM

Question: With `CC(C)(C)CN1CCC2(CC1)CN(c1ccccc1NC(=O)Nc1nc3ccc(Cl)nc3s1)c1c(O)ccc(-c3nc4c(Cl)cccc4s3)c12` [Example 117, 1-(2-(4-(4-Chlorobenzo[d]thiazol-2-yl)-7-hydroxy-1′-neopentylspiro[indoline-3,4′-piperidin]-1-yl)phenyl)-3-(5-chlorothiazolo[5,4-b]pyridin-2-yl)urea] as the compound, how does the IC50 [1, 3] read?
Answer: 0.6 µM

Question: What about the Ki [2] of the same compound?
Answer: 29.6 nM

Question: What does the source list for `CC(C)(C)CN1CCC2(CC1)CN(c1ccccc1NC(=O)Nc1nc3c(s1)CN(CC(F)(F)F)CC3)c1c(O)ccc(Cl)c12` [Example 71, 1-(2-(4-Chloro-7-hydroxy-1′-neopentylspiro[indoline-3,4′-piperidine]-1-yl)phenyl)-3-(5-(2,2,2-trifluoroethyl)-4,5,6,7-tetrahydrothiazolo[5,4-c]pyridin-2-yl)urea]?
Answer: IC50 [1, 3]: 0.3 µM; Ki [2]: 11.1 nM

Question: With `CC(C)(C)CN1CCC2(CC1)CN(c1ccccc1NC(=O)Nc1nc3ccc(Cl)cc3s1)c1c(O)c(F)cc(Cl)c12` [Example 98, 1-(2-(4-Chloro-6-fluoro-7-hydroxy-1′-neopentylspiro [indoline-3,4′-piperidine]-1-yl)phenyl)-3-(6-chlorobenzo [d]thiazol-2-yl)urea] as the compound, how does the IC50 [1, 3] read?
Answer: 0.9 µM

Question: What about the Ki [2] of the same compound?
Answer: 12.8 nM

Question: How did the IC50 ([1]; read-out: PA IC50 (μM) @ 10 μM ADP, platelet aggregation induced by 10 μM ADP, human PRP) turn out when `CC(C)(C)CN1CCC2(CC1)CN(c1ccccc1NC(=O)Nc1nc3ccc(Cl)nc3s1)c1c(O)ccc(Cl)c12` [Example 166, 1-(2-(4-Chloro-7-hydroxy-1′-neopentylspiro[indoline-3,4′-piperidine]-1-yl)phenyl)-3-(5-chlorothiazolo[5,4-b]pyridin-2-yl)urea] was run?
Answer: 0.1 µM

Question: What about the Ki [2] of the same compound?
Answer: 6.8 nM

Question: With `CC(C)(C)CN1CCC2(CC1)CN(c1ccccc1NC(=O)Nc1csc(Cl)n1)c1c(O)ccc(-c3nc4ccc(Br)cc4s3)c12` [Example 119, 1-(2-(4-(6-Bromobenzo[d]thiazol-2-yl)-7-hydroxy-1′-neopentylspiro[indoline-3,4′-piperidin]-1-yl)phenyl)-3-(2-chlorothiazol-4-yl)urea] as the compound, how does the IC50 [1, 3] read?
Answer: 0.3 µM

Question: What about the Ki [2] of the same compound?
Answer: 18.4 nM

Question: For `CC(C)(C)CN1CCC2(CC1)CN(c1ccccc1NC(=O)Nc1nc3ccc(Cl)nc3s1)c1c(O)cccc12` [Example 172, 1-(5-Chlorothiazolo[5,4-b]pyridin-2-yl)-3-(2-(7-hydroxy-1′-neopentylspiro[indoline-3,4′-piperidine]-1-yl)phenyl)urea], which IC50 [1, 3] is on record?
Answer: 0.6 µM

Question: What about the Ki [2] of the same compound?
Answer: 5.3 nM

Question: For `CC(C)(C)CN1CCC2(CC1)CN(c1ccccc1NC(=O)Nc1nc3ccc(Cl)nc3s1)c1c(O)cc(F)c(-c3ccc(Cl)cc3)c12` [Example 164, 1-(2-(4-(4-Chlorophenyl)-5-fluoro-7-hydroxy-1′-neopentylspiro[indoline-3,4′-piperidin]-1-yl)phenyl)-3-(5-chlorothiazolo[5,4-b]pyridin-2-yl)urea], which IC50 [1, 3] is on record?
Answer: 0.6 µM

Question: What about the Ki [2] of the same compound?
Answer: 24.9 nM

Question: `CC(C)CN1CCC2(CC1)CN(c1ccccc1NC(=O)Nc1nc3ccc(Cl)cc3s1)c1c(O)ccc(C#N)c12` [Example 80, 1-(6-Chlorobenzo[d]thiazol-2-yl)-3-(2-(4-cyano-7-hydroxy-1′-isobutylspiro[indoline-3,4′-piperidine]-1-yl)phenyl)urea] was tested. Which IC50 [1, 3] did it give?
Answer: 0.9 µM

Question: And the Ki [2]?
Answer: 14.4 nM

Question: What does the source list for `CC(C)(C)CN1CCC2(CC1)CN(c1ccccc1NC(=O)Nc1csc(Cl)n1)c1c(O)ccc(-c3nc4ccc(Cl)cc4s3)c12` [Example 113, 1-(2-(4-(6-Chlorobenzo[d]thiazol-2-yl)-7-hydroxy-1′-neopentylspiro[indoline-3,4′-piperidin]-1-yl)phenyl)-3-(2-chlorothiazol-4-yl)urea]?
Answer: IC50 [1, 3]: 0.4 µM; Ki [2]: 7.1 nM

Question: Which IC50 [1, 3] does the source give for `COc1ccc2nc(NC(=O)Nc3ccccc3N3CC4(CCN(CC(C)(C)C)CC4)c4c(F)ccc(O)c43)sc2n1` [Example 173, 1-(2-(4-Fluoro-7-hydroxy-1′-neopentylspiro[indoline-3,4′-piperidine]-1-yl)phenyl)-3-(5-methoxythiazolo[5,4-b]pyridin-2-yl)urea] here?
Answer: 0.3 µM

Question: What about the Ki [2] of the same compound?
Answer: 3.8 nM

Question: Which results are given for `CC(C)N1CCC2(CC1)CN(c1ccccc1NC(=O)Nc1ccc(OC(F)(F)F)cc1)c1c(O)ccc(C(F)(F)F)c12` [Example 107, 1-(2-(7-Hydroxy-1′-isopropyl-4-(trifluoromethyl)spiro [indoline-3,4′-piperidine]-1-yl)phenyl)-3-(4-(trifluoromethoxy)phenyl) urea]?
Answer: IC50 [1, 3]: 0.6 µM; Ki [2]: 14.4 nM

Question: What does the source list for `CC(C)CN1CCC2(CC1)CN(c1ccccc1NC(=O)Nc1ccc(OC(F)(F)F)cc1)c1c(O)ccc(C(F)(F)F)c12` [Example 106, 1-(2-(7-Hydroxy-1′-isobutyl-4-(trifluoromethyl)spiro [indoline-3,4′-piperidine]-1-yl)phenyl)-3-(4-(trifluoromethoxy)phenyl) urea]?
Answer: IC50 [1, 3]: 0.1 µM; Ki [2]: 10.6 nM

Question: What does the source list for `CC(C)(C)CN1CCC2(CC1)CN(c1ccccc1NC(=O)Nc1ccc(F)c(F)c1)c1c(O)ccc(C(F)(F)F)c12` [Example 15, 1-(3,4-Difluorophenyl)-3-(2-(7-hydroxy-1′-neopentyl-4-(trifluoromethyl)spiro[indoline-3,4′-piperidine]-1-yl)phenyl)urea]?
Answer: IC50 [1, 3]: 0.5 µM; Ki [2]: 5.1 nM

From patent US9428504B2, “7-hydroxy-spiropipiperidine indolinyl antagonists of P2Y1 receptor” (BRISTOL-MYERS SQUIBB COMPANY, priority 2012, dated 2016)
